# Data taken from US20230087766A1, “METHODS OF REACTIVATING LATENT HUMAN IMMUNODEFICIENCY VIRUS AND RELATED COMPOSITIONS” (priority 2017, published 2023).
# Legend:
# [1] = test system: T cells in PBMCs from healthy HIV-negative donors; assay: Immune activation and checkpoint markers in PBMCs by flow cytometry; type: cell-based, human
# Procedure: PBMCs from healthy HIV-negative donors (n=5) were treated with 100 ng/ml PMA 2 plus 2 μg/ml ionomycin, 30 mM Na-Cro overnight, and analyzed by flow cytometry for the expression of CD4, CD8, HLA-DR, CD69, or PD-1 in CD3+ T cells. Percentage of cells expressing immune activation markers was presented for CD3+ cells (see panel A), CD3+CD4+ T cells (see panel B), and CD3+ CD8+ T cells (see panel C). ***, p<0.001, compared with control after 24 or 72 hour treatment.
# It was examined whether induction of histone crotonylation in T cells impacted the level of immune activation in these cells. Peripheral blood mononuclear cells from HIV-negative healthy donors (n=5) were treated with PMA/Ionomycin or Na-Cro for 24 hours or 72 hours. Changes in the immune cell status were examined by measuring the levels of HLA-DR, CD69, and PD-1 in the T cell subsets by flow cytometric analysis (see FIG. 9). […] Instead, it is associated with the suppression of immune activation, which may have a beneficial effect on patient immune function.
# [2] = test system: ACSS2; assay: ACSS2 expression in J-Lat A1 cells; type: cell-based; conditions: Na-Cro treatment
# From the text: FIG. 3 is a series of graphs showing that suppression of acetyl-CoA synthetase 2 (ACSS2) enzyme disrupts crotonyl-CoA induced reactivation of latent HIV. Panel A illustrates that Na-Cro addition to J-Lat Al cells increased expression of ACSS2 enzyme. **, p<0.01 compared with control treatment. Panel B illustrates expression of ACSS2 after ACSS2 siRNA knockdown in TZM-bl HIV reporter cells. **, p<0.01 compared with control siRNA. Panel C illustrates knockdown of ACSS2 decreased Na-Cro-driven HIV transcription. *, p<0.05 compared with control siRNA. Panels D and E illustrate that pretreatment with ACSS2 inhibitor, AR12, dampens reactivation of latent HIV (see panel D) by inhibition of histone crotonylation (see panel E) at the HIV LTR. **, p<0.01 and ***, p<0.001, compared with control treatment. ##, p<0.01 and ###, p<0.001 compared with Na-Cro treatment.
# [3] = healthy donors n=5, 30 mM Na-Cro
smiles,measurement,setting,value
"C/C=C/C(=O)[O-].[Na+] [Na-Cro, sodium crotonate]",HLA-DR expression in CD4+ or CD8+ T cells,[1]; [3],inhibited HLA-DR expression at 24 and 72 hours
same,PD-1 expression in CD3+ T cells,[1]; [3],did not change
same,PD-1 expression in CD4+ or CD8+ T cells,[1]; [3],did not modulate PD-1 expression
same,HLA-DR expression in CD3+ T cells,"[1]; healthy donors n=5, 30 mM Na-Cro or PMA plus ionomycin, 24 or 72 hours",suppressed HLA-DR expression at 72 hours post-treatment
same,increase in ACSS2 expression,[2],70 fold
